Measurements: patent publication US8450243B2, “Herbicidal quinoline and 1,8-naphthyridine compounds” (Syngenta Limited, priority 2009, dated 2013)

What was measured:
Format in all cases: in vivo
[1] = test system: Echinochloa crus-galli (ECHCG); assay: Herbicidal glasshouse test, post-emergence; details: POST Application, evaluated after 13 days; for pest or weed control at 250 g/ha: Echinochloa crus-galli, post-emergence, 312 h, read-out: damage to plant (100=total damage to plant; 0=no damage to plant); for damage to plant (100=total damage to plant; 0=no damage to plant): 250 g/ha
Procedure: (§1) Seeds of a variety of test species were sown in standard soil in pots (Alopecurus myosuroides (ALOMY), Setaria faberi (SETFA), Echinochloa crus-galli (ECHCG), Abuthilon theophrasti (ABUTH) and Amaranthus retoflexus (AMARE)). After cultivation for one day (pre-emergence) or after 8 days cultivation (post-emergence) under controlled conditions in a glasshouse (at 24/16° C., day/night; 14 hours light; 65% humidity), the plants were sprayed with an aqueous spray solution derived from the formulation of the technical active ingredient in acetone/water (50:50) solution containing 0.5% Tween 20 (polyoxyethelyene sorbitan monolaurate, CAS RN 9005-64-5). Compounds were applied at 250 g/ha. The test plants were then grown in a glasshouse under controlled conditions in a glasshouse (at 24/16° C., day/night; 14 hours light; 65% humidity) and watered twice daily. After 13 days for pre and post-emergence, the test was evaluated (100=total damage to plant; 0=no damage to plant).

[2] = test system: Amaranthus retoflexus (AMARE); assay: Herbicidal glasshouse test, post-emergence; details: POST Application, evaluated after 13 days; for pest or weed control at 250 g/ha: Amaranthus retroflexus, post-emergence, 312 h, read-out: damage to plant (100=total damage to plant; 0=no damage to plant); for damage to plant (100=total damage to plant; 0=no damage to plant): 250 g/ha
Procedure: as §1

[3] = test system: Alopecurus myosuroides (ALOMY); assay: Herbicidal glasshouse test, post-emergence; details: POST Application, evaluated after 13 days; for pest or weed control at 250 g/ha: Alopecurus myosuroides, post-emergence, 312 h, read-out: damage to plant (100=total damage to plant; 0=no damage to plant); for damage to plant (100=total damage to plant; 0=no damage to plant): 250 g/ha
Procedure: as §1

[4] = test system: Abuthilon theophrasti (ABUTH); assay: Herbicidal glasshouse test, post-emergence; details: POST Application, evaluated after 13 days; for pest or weed control at 250 g/ha: Abutilon theophrasti, post-emergence, 312 h, read-out: damage to plant (100=total damage to plant; 0=no damage to plant); for damage to plant (100=total damage to plant; 0=no damage to plant): 250 g/ha
Procedure: as §1

Setaria faberi (SETFA) [5] = assay: Herbicidal glasshouse test, post-emergence; details: POST Application, evaluated after 13 days; for pest or weed control at 250 g/ha: Setaria faberi, post-emergence, 312 h, read-out: damage to plant (100=total damage to plant; 0=no damage to plant); for damage to plant (100=total damage to plant; 0=no damage to plant): 250 g/ha
Procedure: as §1

[6] = test system: Echinochloa crus-galli (ECHCG); assay: Herbicidal glasshouse test, pre-emergence; details: PRE Application, evaluated after 13 days; for pest or weed control at 250 g/ha: Echinochloa crus-galli, pre-emergence, 312 h, read-out: damage to plant (100=total damage to plant; 0=no damage to plant); for damage to plant (100=total damage to plant; 0=no damage to plant): 250 g/ha
Procedure: as §1

[7] = test system: Amaranthus retoflexus (AMARE); assay: Herbicidal glasshouse test, pre-emergence; details: PRE Application, evaluated after 13 days; for pest or weed control at 250 g/ha: Amaranthus retroflexus, pre-emergence, 312 h, read-out: damage to plant (100=total damage to plant; 0=no damage to plant); for damage to plant (100=total damage to plant; 0=no damage to plant): 250 g/ha
Procedure: as §1

[8] = test system: Alopecurus myosuroides (ALOMY); assay: Herbicidal glasshouse test, pre-emergence; details: PRE Application, evaluated after 13 days; for pest or weed control at 250 g/ha: Alopecurus myosuroides, pre-emergence, 312 h, read-out: damage to plant (100=total damage to plant; 0=no damage to plant); for damage to plant (100=total damage to plant; 0=no damage to plant): 250 g/ha
Procedure: as §1

[9] = test system: Abuthilon theophrasti (ABUTH); assay: Herbicidal glasshouse test, pre-emergence; details: PRE Application, evaluated after 13 days; for pest or weed control at 250 g/ha: Abutilon theophrasti, pre-emergence, 312 h, read-out: damage to plant (100=total damage to plant; 0=no damage to plant); for damage to plant (100=total damage to plant; 0=no damage to plant): 250 g/ha
Procedure: as §1

Setaria faberi (SETFA) [10] = assay: Herbicidal glasshouse test, pre-emergence; details: PRE Application, evaluated after 13 days; for pest or weed control at 250 g/ha: Setaria faberi, pre-emergence, 312 h, read-out: damage to plant (100=total damage to plant; 0=no damage to plant); for damage to plant (100=total damage to plant; 0=no damage to plant): 250 g/ha
Procedure: as §1

| SMILES | pest or weed control at 250 g/ha [1] | pest or weed control at 250 g/ha [2] | pest or weed control at 250 g/ha [3] | pest or weed control at 250 g/ha [4] | pest or weed control at 250 g/ha (Setaria faberi (SETFA) [5]) | pest or weed control at 250 g/ha [6] | pest or weed control at 250 g/ha [7] | pest or weed control at 250 g/ha [8] | pest or weed control at 250 g/ha [9] | pest or weed control at 250 g/ha (Setaria faberi (SETFA) [10]) | damage to plant (100=total damage to plant; 0=no damage to plant) [1] | damage to plant (100=total damage to plant; 0=no damage to plant) [2] | damage to plant (100=total damage to plant; 0=no damage to plant) [3] | damage to plant (100=total damage to plant; 0=no damage to plant) [4] | damage to plant (100=total damage to plant; 0=no damage to plant) (Setaria faberi (SETFA) [5]) | damage to plant (100=total damage to plant; 0=no damage to plant) [6] | damage to plant (100=total damage to plant; 0=no damage to plant) [7] | damage to plant (100=total damage to plant; 0=no damage to plant) [8] | damage to plant (100=total damage to plant; 0=no damage to plant) [9] | damage to plant (100=total damage to plant; 0=no damage to plant) (Setaria faberi (SETFA) [10]) |
| --- | --- | --- | --- | --- | --- | --- | --- | --- | --- | --- | --- | --- | --- | --- | --- | --- | --- | --- | --- | --- |
| COCCn1c(=O)c(C(=O)C2C(=O)CCCC2=O)cc2cc(F)c(C)nc21 [Compound 1.47] | 90% | 70% | 80% | 70% | 80% | 90% | 100% | 50% | 90% | 90% |  |  |  |  |  |  |  |  |  |  |
| O=C1CCCC(=O)C1C(=O)c1cc2cc(F)cnc2n(CCC=C(F)F)c1=O [Compound 1.48] |  |  |  |  |  |  |  |  |  |  | 80 | 40 | 70 | 80 | 80 | 100 | 100 | 80 | 90 | 90 |
| CCn1c(=O)c(C(=O)C2C(=O)CCCC2=O)cc2cc(F)cnc21 [Compound 1.49] | 80% | 70% | 70% | 80% | 70% | 100% | 100% | 60% | 90% | 90% |  |  |  |  |  |  |  |  |  |  |
| CCCn1c(=O)c(C(=O)C2C(=O)CCCC2=O)cc2cc(F)cnc21 [Compound 1.50] | 80% | 70% | 70% | 80% | 80% | 100% | 90% | 80% | 90% | 100% |  |  |  |  |  |  |  |  |  |  |
| Cn1c(=O)c(C(=O)C2C(=O)CCCC2=O)cc2ccc(Br)cc21 [Compound 3.42] | 80% | 80% | 20% | 90% | 70% | 70% | 80% | 10% | 50% | 0% |  |  |  |  |  |  |  |  |  |  |
| O=C1CCCC(=O)C1C(=O)c1cc2cc(F)cnc2n(-c2cccc(C(F)(F)F)c2)c1=O [Compound 4.11] |  |  |  |  |  |  |  |  |  |  | 90 | 90 | 90 | 100 | 90 | 90 | 100 | 70 | 90 | 80 |
| O=C1CCCC(=O)C1C(=O)c1cc2cc(F)cnc2n(Cc2ccccc2F)c1=O [Compound 4.15] |  |  |  |  |  |  |  |  |  |  | 80 | 50 | 30 | 80 | 70 | 80 | 50 | 0 | 70 | 0 |
| O=C1CCCC(=O)C1C(=O)c1cc2cc(F)cnc2n(CCOc2ccccc2)c1=O [Compound 4.16] | 80% | 50% | 40% | 80% | 60% | 50% | 30% | 20% | 50% | 20% |  |  |  |  |  |  |  |  |  |  |
